# From US20250296971A1, “GASTRIC INHIBITORY PEPTIDE RECEPTOR LIGANDS” (priority 2021, published 2025)
# Where two headings read alike, the source gives them in different places. *1 amine or outer side, *2 acyl side, *3 side chain or, on linkers, in order; H or OH if unused. Where a SMILES comes first, the peptide text is derived from it. Bridges are numbered along the chain shown (N, C = ends). [ ]: non-standard residue; d: D form. The star is where a group is joined. X3 = O=C(O)CN1CCN(CC(=O)O)CCN(CC(=O)NCCCOCCOCCOCCCN*)CCN(CC(=O)O)CC1; DOTA = O=C(O)CN1CCN(CC(=O)O)CCN(CC(=O)*)CCN(CC(=O)O)CC1; Maleimide(3,4-diyl) = O=C1NC(=O)C([*:2])=C1[*:1]; Trp(5-Cl) = N[C@@H](Cc1c[nH]c2ccc(Cl)cc12)C(=O)O; Pyridine(2,6-diCH2) = c1cc(C[*:1])nc(C[*:2])c1; Trp(6-F) = N[C@@H](Cc1c[nH]c2cc(F)ccc12)C(=O)O; Phe(4-Cl) = N[C@@H](Cc1ccc(Cl)cc1)C(=O)O; X7 = c1cc(CSCCN[*:2])cc(C[*:1])c1; Hyp = O=C(O)[C@@H]1C[C@@H](O)CN1; Suc = O=C(CCC(=O)[*:2])[*:1]; hCys = N[C@@H](CCS)C(=O)O; Thp = NC1(C(=O)O)CCOCC1; Aib = CC(C)(N)C(=O)O
# Target: T1, GIPR (CHO-K1-hGIPR cells) (Homo sapiens, UniProt P48546)
# T1 construct: host or cells: CHO-K1
# T1 sequence (P48546 22-466): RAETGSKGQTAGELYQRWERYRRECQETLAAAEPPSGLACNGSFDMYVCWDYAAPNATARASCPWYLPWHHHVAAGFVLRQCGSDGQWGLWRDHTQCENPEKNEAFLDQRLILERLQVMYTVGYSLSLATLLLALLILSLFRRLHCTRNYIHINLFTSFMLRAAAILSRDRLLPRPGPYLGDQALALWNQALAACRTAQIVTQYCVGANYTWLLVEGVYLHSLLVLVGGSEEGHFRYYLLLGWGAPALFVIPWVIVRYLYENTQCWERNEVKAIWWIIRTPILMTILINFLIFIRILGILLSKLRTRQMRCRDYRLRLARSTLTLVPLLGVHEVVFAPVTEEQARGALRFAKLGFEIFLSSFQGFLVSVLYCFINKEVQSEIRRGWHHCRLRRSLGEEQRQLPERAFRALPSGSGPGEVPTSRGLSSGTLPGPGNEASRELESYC
# Experiment: FACS binding assay
# Conditions: read-out: pIC50 Category (converted)
# Procedure: In order to determine binding of compounds according to the present invention to GIPR-expressing cells, a FACS binding assay was established.
# CHO-K1-hGIPR cells (GenScript Biotech, #M00486) were cultured in Ham's F12 medium (Sigma-Aldrich, #N4888) including 10% fetal calf serum (FCS), 2 mM L-glutamine, 100 U/mL penicillin, 100 μg/mL streptomycin, 200 μg/mL Zeocin and 100 μg/mL HygromycinB. Cells were detached with Accutase (Biolegend, #BLD-423201) and washed in FACS buffer (PBS including 1% FCS). Cells were diluted in FACS buffer to a final concentration of 500.000 cells per mL. 200 μL of the cell suspension were transferred to a u-shaped non-binding 96-well plate (Greiner) and cells were washed in ice-cold FACS buffer.
# Cells were washed twice in FACS buffer. An additional incubation step with 1 μg/mL APC-Streptavidin (Miltenyi; #130-106-791) in 50 μL FACS buffer for 30 min on ice was performed followed by two washes with FACS buffer.
# Cells were analyzed in an Attune NxT flow cytometer. Median fluorescence intensities (MFI) of the APC/Cy5-channel were calculated by Attune NxT software. MFI values were plotted against peptide concentration and four parameter logistic (4PL) curve fitting and EC50/pEC50 or IC50/pIC50 calculations were performed using ActivityBase software.
# [1] = competition with 20 nM GIP-057, 4° C., 1 hour
# [2] = competition with 20 nM GIP-057, 4° C. for 1 hour
IC50 [1],IC50 [2],SMILES
< 10 nM,–,"CC[C@H](C)[C@@H]1NC(=O)[C@H](CC(C)C)NC(=O)C2(CCOCC2)NC(=O)[C@@H](NC(=O)[C@@H](CC(C)C)NC(=O)[C@H](CCC(=O)O)NC(=O)[C@@H]2C[C@@H](O)CN2C(=O)[C@H](Cc2c[nH]c3ccc(Cl)cc23)NC(=O)[C@H](Cc2c[nH]c3ccccc23)NC(=O)CCC(=O)O)CSCc2cccc(n2)CSC[C@@H](C(=O)N[C@H](CCCCNC(=O)CN2CCN(CC(=O)O)CCN(CC(=O)O)CCN(CC(=O)O)CC2)C(N)=O)NC1=O [GIP-116, HO-Succinyl-Trp-5Clw-Hyp-Glu-leu-[Cys(2Lut)-Thp-Leu-Ile-Cys]-lys(DOTA)-NH2] (Suc-W[Trp(5-Cl)][Hyp]E[dL]C[Thp]LIC[dK](DOTA)-NH2; linker 6-10 via Pyridine(2,6-diCH2))"
–,10 to 79.4 nM,"CC[C@H](C)[C@@H]1NC(=O)[C@H](CC(C)C)NC(=O)C2(CCOCC2)NC(=O)[C@@H](NC(=O)[C@@H](CC(C)C)NC(=O)[C@H](CCC(=O)O)NC(=O)[C@@H]2C[C@@H](O)CN2C(=O)[C@H](Cc2c[nH]c3ccc(Cl)cc23)NC(=O)[C@H](Cc2c[nH]c3ccccc23)NC(=O)[C@H](CC(=O)O)NC(C)=O)CCSC2=C(SC[C@@H](C(N)=O)NC1=O)C(=O)NC2=O [GIP-362, Ac-Asp-Trp-5Clw-Hyp-Glu-leu-[Hcy(mli)-Thp-Leu-Ile-Cys]-NH2] (Ac-DW[Trp(5-Cl)][Hyp]E[dL][hCys][Thp]LIC-NH2; linker 7-11 via Maleimide(3,4-diyl))"
< 10 nM,–,"CC[C@H](C)[C@@H]1NC(=O)[C@H](CC(C)C)NC(=O)C(C)(C)NC(=O)[C@@H](NC(=O)[C@@H](CC(C)C)NC(=O)[C@H](CCC(=O)O)NC(=O)[C@@H]2CCCN2C(=O)[C@H](Cc2c[nH]c3ccc(Cl)cc23)NC(=O)[C@H](Cc2c[nH]c3cc(F)ccc23)NC(=O)[C@H](CC(=O)O)NC(=O)CCC(=O)NCCCOCCOCCOCCCNC(=O)CN2CCN(CC(=O)O)CCN(CC(=O)O)CCN(CC(=O)O)CC2)CSCc2cccc(c2)CSCCNC1=O [GIP-104, DOTA-Ttds-Asp-6Fw-5Clw-Pro-Glu-leu-[Cys(3MeBn)-Aib-Leu-Ile-AET]] ({X3-Suc}-D[Trp(6-F)][Trp(5-Cl)]PE[dL]C[Aib]LI; linker 7-C via X7)"
< 10 nM,–,"CC[C@H](C)[C@@H]1NC(=O)[C@H](CC(C)C)NC(=O)C2(CCOCC2)NC(=O)[C@@H](NC(=O)[C@@H](CC(C)C)NC(=O)[C@H](CCC(=O)O)NC(=O)[C@@H]2C[C@@H](O)CN2C(=O)[C@H](Cc2c[nH]c3ccc(Cl)cc23)NC(=O)[C@H](Cc2ccc(Cl)cc2)NC(=O)[C@H](CC(=O)O)NC(C)=O)CSCc2cccc(n2)CSC[C@@H](C(N)=O)NC1=O [GIP-210, Ac-Asp-Pcf-5Clw-Hyp-Glu-leu-[Cys(2Lut)-Thp-Leu-Ile-Cys]-NH2] (Ac-D[Phe(4-Cl)][Trp(5-Cl)][Hyp]E[dL]C[Thp]LIC-NH2; linker 7-11 via Pyridine(2,6-diCH2))"
–,10 to 79.4 nM,"CC(C)C[C@@H]1NC(=O)C2(CCOCC2)NC(=O)[C@@H](NC(=O)[C@@H](CC(C)C)NC(=O)[C@H](CCC(=O)O)NC(=O)[C@@H]2C[C@@H](O)CN2C(=O)[C@H](Cc2c[nH]c3ccc(Cl)cc23)NC(=O)[C@H](Cc2c[nH]c3ccccc23)NC(=O)[C@H](CC(=O)O)NC(=O)CCC(=O)NCCCOCCOCCOCCCNC(=O)CN2CCN(CC(=O)O)CCN(CC(=O)O)CCN(CC(=O)O)CC2)CSCc2cccc(n2)CSC[C@@H](C(N)=O)NC(=O)[C@H](Cc2ccccc2)NC1=O [GIP-388, DOTA-Ttds-Asp-Trp-5Clw-Hyp-Glu-leu-[Cys(2Lut)-Thp-Leu-Phe-Cys]-NH2] ({X3-Suc}-DW[Trp(5-Cl)][Hyp]E[dL]C[Thp]LFC-NH2; linker 7-11 via Pyridine(2,6-diCH2))"
